Assay results from patent US8435978B2, “Substituted sulfonamide compounds” (Gruenenthal GmbH, priority 2006, dated 2013).
Structures can show the parent of a compound that is named as a salt.

Key:
human B1R receptor = target: T1, human B1R receptor (Homo sapiens, UniProt P46663); experiment: Functional study on the bradykinin receptor 1 (B1R), FLIPR Ca2+ assay, hB1R cells; format: cell-based; settings: agonist Lys-Des-Arg9-bradykinin 0.5 nM, % inhibition compared with the maximum achievable inhibition; for inhibition at 10 µM: CHO-K1, test substance 10 μM, read-out: B1R Antagonism, human [10 μM] % Inhibition
T1 construct: host or cells: CHO K1 cells (Chinese hamster ovary), stably transfected
T1 sequence (P46663 1-353): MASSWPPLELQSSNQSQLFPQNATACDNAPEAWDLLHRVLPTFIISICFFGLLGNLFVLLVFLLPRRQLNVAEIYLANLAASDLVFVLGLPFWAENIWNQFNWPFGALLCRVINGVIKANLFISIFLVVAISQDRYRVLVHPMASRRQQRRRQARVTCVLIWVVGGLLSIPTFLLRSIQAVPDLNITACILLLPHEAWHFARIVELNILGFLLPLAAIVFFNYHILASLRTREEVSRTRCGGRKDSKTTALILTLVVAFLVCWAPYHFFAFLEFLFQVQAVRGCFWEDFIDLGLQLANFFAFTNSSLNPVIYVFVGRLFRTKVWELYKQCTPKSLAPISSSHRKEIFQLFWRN
Method in brief: (§1)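 Cells were dye-loaded 60 min at 37 °C, equilibrated 20 min at room temperature, then given 10 μM compound. Ten minutes later the species-matched agonist was added (0.5 nM Lys-Des-Arg9-bradykinin, human; 100 nM Des-Arg9-bradykinin, rat) and Ca2+ influx suppression expressed as % of maximum inhibition.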

B1R receptor of the rat = target: T2, B1R receptor of the rat (Rattus norvegicus, UniProt P97583); experiment: Functional study on the bradykinin receptor 1 (B1R), FLIPR Ca2+ assay, rB1R cells; format: cell-based; settings: agonist Des-Arg9-bradykinin 100 nM, % inhibition compared with the maximum achievable inhibition; for inhibition at 10 µM: CHO-K1, test substance 10 μM, read-out: B1R Antagonism, rat [10 μM] % Inhibition
T2 construct: host or cells: CHO K1 cells (Chinese hamster ovary), stably transfected
T2 sequence (P97583 1-337): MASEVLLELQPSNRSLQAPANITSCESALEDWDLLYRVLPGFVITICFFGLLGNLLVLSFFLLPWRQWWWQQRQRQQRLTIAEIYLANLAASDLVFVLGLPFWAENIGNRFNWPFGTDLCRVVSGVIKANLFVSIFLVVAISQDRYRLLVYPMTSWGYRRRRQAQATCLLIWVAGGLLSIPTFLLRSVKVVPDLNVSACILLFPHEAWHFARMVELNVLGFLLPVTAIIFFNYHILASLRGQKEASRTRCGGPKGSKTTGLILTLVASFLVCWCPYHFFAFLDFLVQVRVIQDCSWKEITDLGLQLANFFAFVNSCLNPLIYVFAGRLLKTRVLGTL
Method in brief: as §1

| Molecule | inhibition at 10 µM (human B1R receptor) [%] | inhibition at 10 µM (B1R receptor of the rat) [%] | B1R Antagonism, human [10 μM] % Inhibition (human B1R receptor; test substance 10 μM, hB1R CHO K1 cells) [%] | B1R Antagonism, rat [10 μM] % Inhibition (B1R receptor of the rat; test substance 10 μM, rB1R CHO K1 cells) [%] |
| --- | --- | --- | --- | --- |
| COc1ccc(N2CCN(C(=O)COCC3CCCN3S(=O)(=O)c3c(Cl)cccc3Cl)CC2)cc1 (stereo not drawn) [Example 325, 2-((1-(2,6-dichlorophenylsulfonyl)pyrrolidin-2-yl)methoxy)-1-(4-(4-methoxyphenyl)piperazin-1-yl)ethanone] | 102 | 101 | – | – |
| COc1cc(C)c(S(=O)(=O)N2CCCCC2COCC(=O)NCCCn2ccnc2)c(C)c1 (stereo not drawn) [Example 366, N-(3-(1H-imidazol-1-yl)propyl)-2-((1-(4-methoxy-2,6-dimethylphenylsulfonyl)piperidin-2-yl)methoxy)acetamide] | 14.8 | 99 | – | – |
| COc1cc(C)c(S(=O)(=O)N2CCCC2COCC(=O)N(C)[C@H]2CCN(Cc3ccccc3)C2)c(C)c1 (stereo partly drawn) [Example 303, N—((S)-1-benzylpyrrolidin-3-yl)-2-((1-(4-methoxy-2,6-dimethylphenylsulfonyl)pyrrolidin-2-yl)methoxy)-N-methylacetamide] | 106 | 100 | – | – |
| O=C(COCC1CCCCN1S(=O)(=O)c1c(Cl)cccc1Cl)N1CCN(Cc2ccc(Cl)cc2)CC1 (stereo not drawn) [Example 407, 1-(4-(4-chlorobenzyl)piperazin-1-yl)-2-((1-(2,6-dichlorophenylsulfonyl)piperidin-2-yl)methoxy)ethanone] | 102 | 99 | – | – |
| O=C(COCC1CCCCN1S(=O)(=O)c1ccc(Cl)c(Cl)c1)N1CCN(c2ccccc2F)CC1 (stereo not drawn) [Example 86, 2-[1-(3,4-dichloro-phenylsulfonyl)-piperidin-2-ylmethoxy]-1-[4-(2-fluoro-phenyl)-piperazin-1-yl]-ethanone] | 43.2 | 0 | – | – |
| O=C(COCC1CCCCN1S(=O)(=O)c1ccc(Br)cc1)N1CCC(CCN2CCCC2)CC1 (stereo not drawn) [Example 125, 2-((1-(4-bromophenylsulfonyl)piperidin-2-yl)methoxy)-1-(4-(2-(pyrrolidin-1-yl)ethyl)piperidin-1-yl)ethanone] | 50.6 | 95.4 | – | – |
| Cc1cccc(Cl)c1S(=O)(=O)N1CCCCC1COCC(=O)N1CCN(C2CCN(C)CC2)CC1 (stereo not drawn) [Example 109, 2-((1-(2-chloro-6-methylphenylsulfonyl)piperidin-2-yl)methoxy)-1-(4-(1-methylpiperidin-4-yl)piperazin-1-yl)ethanone] | 103 | 102 | – | – |
| O=C(COCC1CCCCN1S(=O)(=O)c1c(Cl)cccc1Cl)N1CCC(CCN2CCCCC2)CC1 (stereo not drawn) [Example 279, 2-((1-(2,6-dichlorophenylsulfonyl)piperidin-2-yl)methoxy)-1-(4-(2-(piperidin-1-yl)ethyl)piperidin-1-yl)ethanone] | 104 | 95.4 | – | – |
| CCN1CCN(c2ccc(NC(=O)COCC3CCCCN3S(=O)(=O)c3ccc(OC)cc3)cc2)CC1 (stereo not drawn) [Example 555, N-(4-(4-ethylpiperazin-1-yl)phenyl)-2-((1-(4-methoxyphenylsulfonyl)piperidin-2-yl)methoxy)acetamide] | 62.5 | 102 | – | – |
| COc1cc(C)c(S(=O)(=O)N2CCCCC2COCC(=O)NCC2CCN(Cc3ccccc3)C2)c(C)c1 (stereo not drawn) [Example 414, N-((1-benzylpyrrolidin-3-yl)methyl)-2-((1-(4-methoxy-2,6-dimethylphenylsulfonyl)piperidin-2-yl)methoxy)acetamide] | 101 | 100 | – | – |
| CN1CCC(N2CCN(C(=O)COCC3CCCCN3S(=O)(=O)c3ccc(C(F)(F)F)cc3Cl)CC2)CC1 (stereo not drawn) [Example 138, 2-((1-(2-chloro-4-(trifluoromethyl)phenylsulfonyl)piperidin-2-yl)methoxy)-1-(4-(1-methylpiperidin-4-yl)piperazin-1-yl)ethanone] | 104 | 98.5 | – | – |
| 2-((1-(2,6-dichlorophenylsulfonyl)piperidin-2-yl)methoxy)-N-(4-(dimethylamino)butyl)acetamide [Example 441] | – | – | 103.96 | 98.36 |
| Cc1ccccc1S(=O)(=O)N1CCCCC1COCC(=O)N1CCN(C2CCN(C)CC2)CC1 (stereo not drawn) [Example 159, 1-(4-(1-methylpiperidin-4-yl)piperazin-1-yl)-2-((1-(o-tolylsulfonyl)piperidin-2-yl)methoxy)ethanone dihydrochloride] | 99.2 | 101 | – | – |
| COc1cc(C)c(S(=O)(=O)N2CCCCC2COCC(=O)NC(C)Cn2cccn2)c(C)c1 (stereo not drawn) [Example 426, N-(1-(1H-pyrazol-1-yl)propan-2-yl)-2-((1-(4-methoxy-2,6-dimethylphenylsulfonyl)piperidin-2-yl)methoxy)acetamide] | -4.95 | 94.4 | – | – |
| CN(C(=O)COCC1CCCCN1S(=O)(=O)c1c(Cl)cc(Cl)cc1Cl)C(CN1CCCC1)c1ccccc1 (stereo not drawn) [Example 392, N-methyl-N-(1-phenyl-2-(pyrrolidin-1-yl)ethyl)-2-((1-(2,4,6-trichlorophenylsulfonyl)piperidin-2-yl)methoxy)acetamide] | 101 | 99.1 | – | – |

The next lines start with the values.

| inhibition at 10 µM (human B1R receptor) [%] | inhibition at 10 µM (B1R receptor of the rat) [%] | B1R Antagonism, human [10 μM] % Inhibition (human B1R receptor; test substance 10 μM, hB1R CHO K1 cells) [%] | B1R Antagonism, rat [10 μM] % Inhibition (B1R receptor of the rat; test substance 10 μM, rB1R CHO K1 cells) [%] | Molecule |
| --- | --- | --- | --- | --- |
| 59.7 | 94.5 | – | – | CN(CCC1CCC(N(C)C)CC1)C(=O)COCC1CCc2ccccc2N1S(=O)(=O)c1ccc(Cl)c(Cl)c1 (stereo not drawn) [Example 213, 2-((1-(3,4-dichlorophenylsulfonyl)-1,2,3,4-tetrahydroquinolin-2-yl)methoxy)-N-(2-(4-(dimethylamino)cyclohexyl)ethyl)-N-methylacetamide] |
| 102 | 102 | – | – | COc1cc(C)c(S(=O)(=O)N2CCC[C@H]2COCC(=O)N2CCC(CCN3CCCC3)CC2)c(C)c1 [Example 190, (S)-2-((1-(4-methoxy-2,6-dimethylphenylsulfonyl)pyrrolidin-2-yl)methoxy)-1-(4-(2-(pyrrolidin-1-yl)ethyl)piperidin-1-yl)ethanone hydrochloride] |
| 104 | 99.2 | – | – | COc1cccc(N2CCN(C(=O)COCC3CCCN3S(=O)(=O)c3c(C)cc(OC)cc3C)CC2)c1 (stereo not drawn) [Example 306, 2-((1-(4-methoxy-2,6-dimethylphenylsulfonyl)pyrrolidin-2-yl)methoxy)-1-(4-(3-methoxyphenyl)piperazin-1-yl)ethanone] |
| 12.1 | 85.6 | – | – | COc1ccc(S(=O)(=O)N2CCCCC2COCC(=O)Nc2ccc(N3CCOCC3)c3nonc23)cc1 (stereo not drawn) [Example 556, 2-((1-(4-methoxyphenylsulfonyl)piperidin-2-yl)methoxy)-N-(7-morpholinobenzo[c][1,2,5]oxadiazol-4-yl)acetamide] |
| 66.6 | 30.5 | – | – | CCN(CC)CCN(CCN(CC)CC)C(=O)COCC1Cc2ccccc2CN1S(=O)(=O)c1c(C)cc(C)cc1C (stereo not drawn) [Example 48, N,N-bis-(2-diethylamino-ethyl)-2-[2-(2,4,6-trimethyl-phenylsulfonyl)-1,2,3,4-tetra-hydro-isoquinolin-3-ylmethoxy]-acetamide] |
| 70.7 | 86.4 | – | – | COc1ccc(S(=O)(=O)N2Cc3ccccc3C[C@H]2COCC(=O)N2CCN(CC3CCN(C)CC3)CC2)cc1 [Example 189, (S)-2-((2-(4-methoxyphenylsulfonyl)-1,2,3,4-tetrahydroisoquinolin-3-yl)methoxy)-1-(4-((1-methylpiperidin-4-yl)methyl)piperazin-1-yl)ethanone dihydrochloride] |
| 28.1 | 81.4 | – | – | COc1cc(C)c(S(=O)(=O)N2CCCCC2COCC(=O)Nc2ccc(N3CCCC3)cc2)c(C)c1 (stereo not drawn) [Example 409, 2-((1-(4-methoxy-2,6-dimethylphenylsulfonyl)piperidin-2-yl)methoxy)-N-(4-(pyrrolidin-1-yl)phenyl)acetamide] |
| 94.9 | 86.4 | – | – | O=C(COCC1CCCCN1S(=O)(=O)c1ccc(Cl)c(Cl)c1)N1CCC(CCN2CCCCC2)CC1 (stereo not drawn) [Example 20, 2-((1-(3,4-dichlorophenylsulfonyl)piperidin-2-yl)methoxy)-1-(4-(2-(piperidin-1-yl)-ethyl)piperidin-1-yl)ethanone] |
| 51 | 106 | – | – | CN(C)Cc1ccc(CNC(=O)COCC2CCCN2S(=O)(=O)c2c(Cl)cc(Cl)cc2Cl)cc1 (stereo not drawn) [Example 73, N-(4-dimethylaminomethyl-benzyl)-2-[1-(2,4,6-trichloro-phenylsulfonyl)-pyrrolidin-2-ylmethoxy]-acetamide] |
